target: Transient receptor potential cation channel subfamily A member 1 (Homo sapiens, UniProt O75762); assay: Inhibition of human TRPA1 overexpressed in HEK293 cells assessed as reduction in AITC-induced calcium mobilization preincubated for 5 mins followed by AITC addition by FLIPR assay; type: cell-based
Sequence (O75762 whole entry): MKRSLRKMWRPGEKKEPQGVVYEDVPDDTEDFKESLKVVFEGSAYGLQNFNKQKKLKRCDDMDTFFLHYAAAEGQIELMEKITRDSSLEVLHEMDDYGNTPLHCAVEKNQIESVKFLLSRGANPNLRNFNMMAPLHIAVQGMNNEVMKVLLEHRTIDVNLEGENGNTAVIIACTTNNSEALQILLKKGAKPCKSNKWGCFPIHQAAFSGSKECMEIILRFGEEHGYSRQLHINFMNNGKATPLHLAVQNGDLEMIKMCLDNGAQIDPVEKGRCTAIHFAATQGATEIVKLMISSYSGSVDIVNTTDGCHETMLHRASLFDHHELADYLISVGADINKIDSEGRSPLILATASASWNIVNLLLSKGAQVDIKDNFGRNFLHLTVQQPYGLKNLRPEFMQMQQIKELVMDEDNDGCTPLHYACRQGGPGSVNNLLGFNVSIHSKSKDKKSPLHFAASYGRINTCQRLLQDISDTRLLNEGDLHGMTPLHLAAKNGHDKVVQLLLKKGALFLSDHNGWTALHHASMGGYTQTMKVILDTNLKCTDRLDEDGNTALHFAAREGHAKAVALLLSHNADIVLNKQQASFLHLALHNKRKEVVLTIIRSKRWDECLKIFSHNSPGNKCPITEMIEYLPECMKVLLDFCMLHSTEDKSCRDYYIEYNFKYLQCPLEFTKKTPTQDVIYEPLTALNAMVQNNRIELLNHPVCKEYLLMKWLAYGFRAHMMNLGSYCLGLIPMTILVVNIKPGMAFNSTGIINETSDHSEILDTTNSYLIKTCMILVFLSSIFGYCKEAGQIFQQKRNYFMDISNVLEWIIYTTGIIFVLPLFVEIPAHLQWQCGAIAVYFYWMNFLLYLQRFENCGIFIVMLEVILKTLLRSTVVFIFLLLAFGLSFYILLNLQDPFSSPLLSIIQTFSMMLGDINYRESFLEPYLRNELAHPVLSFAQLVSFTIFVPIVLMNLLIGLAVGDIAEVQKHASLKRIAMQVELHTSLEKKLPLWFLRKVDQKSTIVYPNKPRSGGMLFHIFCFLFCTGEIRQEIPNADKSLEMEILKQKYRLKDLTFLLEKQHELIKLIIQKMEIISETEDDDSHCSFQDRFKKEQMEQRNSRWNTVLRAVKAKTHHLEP

Row | SMILES | IC50
1 | CC1=C(CC/C(C)=C/CC[C@]2(C)CC[C@@H]([C@H](C)C(=O)O)OO2)C(C)(C)CCC1 | 5.6 µM
2 | CC1=C(CC/C(C)=C/CC[C@@]2(C)CC[C@@H]([C@H](C)C(=O)O)OO2)C(C)(C)CCC1 [EPIMUQUBILIN A] | 4.8 µM
3 | CC(=O)CCCC(C)(C)C(=O)CC/C(C)=C/CC[C@]1(C)CC[C@H]([C@@H](C)C(=O)O)OO1 [(+)-MUQUBILONE B] | > 30 µM
4 | COC(=O)[C@H](C)[C@@H]1CC[C@@](C)(CCC2=C(C)C(=O)CCC2(C)C)OO1 [METHYL DIACARNOATE A] | > 30 µM
5 | C=C1CCCC(C)(C)C1CC[C@]1(C)CC[C@H]([C@@H](C)C(=O)OC)OO1 (some centres not stated) [NUAPAPUIN B] | 18.9 µM
6 | COC(=O)[C@H](C)[C@H]1CC[C@@](C)(CCC2=C(C)C(O)CCC2(C)C)OO1 (mixture of isomers) | > 30 µM
7 | C=C1CCC[C@H]2[C@](C)(CC[C@@]3(C)CC[C@H]([C@@H](C)C(=O)O)OO3)[C@@H](C)CC[C@]12C | 2 µM
8 | CC1=C(CC/C(C)=C/CC[C@@]2(C)CC[C@@H]([C@H](C)C(=O)O)OO2)C(C)(C)CCC1=O | 15.3 µM
9 | COC(=O)[C@H](C)[C@@H]1CC[C@@](C)(CCC2=C(C)C(OC)CCC2(C)C)OO1 (mixture of isomers) | > 30 µM
10 | C=C1CCC[C@H]2[C@](C)(CC[C@@]3(C)CC[C@H]([C@@H](C)C(=O)OC)OO3)[C@@H](C)CC[C@]12C | 13.5 µM
11 | COC(=O)[C@H](C)[C@H]1CC[C@@](C)(CCC2=C(C)C(=O)CCC2(C)C)OO1 [DIACARPEROXIDE A] | 22.1 µM
12 | C=C1CCCC(C)(C)C1CC[C@]1(C)CC[C@@H]([C@@H](C)C(=O)OC)OO1 (some centres not stated) | > 30 µM
13 | COC(=O)[C@H](C)[C@H]1CC[C@@](C)(CCC2=C(C)C(OC)CCC2(C)C)OO1 (mixture of isomers) | > 30 µM
14 | COC(=O)[C@H](C)[C@H]1CC[C@@](C)(CCC2=C(C)CCCC2(C)C)OO1 [NUAPAPUIN A METHYL ESTER] | 14.1 µM
15 | COC(=O)[C@H](C)[C@@H]1CC[C@@](C)(CCC2=C(C)C(O)CCC2(C)C)OO1 (mixture of isomers) | > 30 µM
16 | CC1=C(CC[C@]2(C)CC[C@H]([C@@H](C)C(=O)O)OO2)C(C)(C)CCC1 | > 30 µM
17 | COC(=O)[C@H](C)[C@@H]1CC[C@@](C)(CCC2=C(C)CCCC2(C)C)OO1 | 29.3 µM
